Like-named read-outs stand apart in the source and are kept apart here.
Assays:
[1] = molecular target: T1, RORγt (RORγ-LBD chimeric receptor) (Homo sapiens, UniProt P51449); assay: Luciferase reporter gene assay of RORγt agonistic activity in HEK293T cells; assay type: cell-based; parameters: Emax: dose or concentration left out as unconfirmed; conditions: for Emax: HEK-293T
T1 construct: host or cells: HEK293T
T1 sequence (P51449 269-508 limits assumed): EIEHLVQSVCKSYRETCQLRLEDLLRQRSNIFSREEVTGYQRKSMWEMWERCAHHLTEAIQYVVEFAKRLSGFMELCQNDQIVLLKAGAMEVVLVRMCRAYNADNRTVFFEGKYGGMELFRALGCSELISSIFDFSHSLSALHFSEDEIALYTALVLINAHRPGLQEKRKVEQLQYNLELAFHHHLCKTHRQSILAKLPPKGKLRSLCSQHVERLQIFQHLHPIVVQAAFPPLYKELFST
Text: This assay was basically carried out according to the method described in the literature ONCOIMMUNOLOGY, 2016, VOL. 5, NO. 12, e1254854.
The RORγ-LBD coding sequence was inserted into pBIND plasmid (Promega, E1581). This expression vector and a reporter vector (pGL4.35 carrying a stably integrated luciferase reporter gene driven by GAL4 promoter) were co-expressed in HEK293T host cells. When the agonist binds to the corresponding chimeric receptor, the chimeric receptor binds to the GAL4 binding site on the reporter gene carrier and stimulates reporter gene expression. The agonistic activity of the compound on RORγ was determined according to the intensity of the chemiluminescence signal.
1.1 All test compounds were serially diluted at 3-fold dilution with DMSO, with 10 serial dilutions starting from 10 mM; LIT-00093 solution was prepared similarly. […] 1.4 The compound plate was sealed and shaken for 5 min.
Cells were cultured according to ATCC standard operation, and 6*10^6 HEK293T cells were seeded into 100 mm cell culture dishes, cultured overnight in a 37° C., 5% CO2 incubator, and then transfected. Compounds of corresponding concentrations were added for treatment, and the Steady-Glo™ kit (Lot E 2520) was used for further detection.
Chemiluminescence values were detected with Envision 2104; EC50 values were calculated.
% Activity was calculated with the following equation: […]
RLU: […] R L Upositive: average value of positive control R L Uvehicle: average value of negative control
The log values of the compound concentration and % Activity were fitted using Graphad 8.0, to calculate EC50s of the compounds.

[2] = Metabolic stability in human liver microsomes; assay type: in vitro ADME; conditions: for microsomal CLint: 0.5 mg protein/mL
Text: (§1) According to standard methods of in vitro metabolic stability studies in the art, eg., the methods described in Kerns, Edward H. and Di Li (2008). Drug-like Properties: Concepts, Structure Design and Methods: from ADME to Toxicity Optimization. San Diego: Academic Press; Di, Li et al., Optimization of a Higher Throughput Microsomal Stability Screening Assay for Profiling Drug Discovery Candidates, J. Biomol. Screen. 2003, The method described in 8(4), 453, the liver microsomal metabolic stability test of the compounds of the present disclosure was carried out analogously as follows.
(§2) The incubation system contained 0.5 mg protein/mL microsomes, cofactors, and PBS, was pre-incubated at 37° C. for 3 min, and then added the substrate (i.e., the test compounds) to initiate the reaction. Samples were taken at 0, 1, 5, 10, 15, 20, 30 and 60 min from the start of the reaction, and an appropriate terminator was added to terminate the reaction.
(§3) The terminator was an ice acetonitrile solution containing 100 ng/mL tolbutamide and 100 ng/mL labetalol.
(§4) Sample treatment (n=3): each appropriate sample was added, vortexed and centrifuged at high speed. The supernatants were collected, and the substrate was detected by HPLC-MS/MS. The peak area at the 0 min was taken as 100%. The peak areas at other time points were converted to percentage of the remaining amount. The natural logarithms of the percentage of remaining amount at each time point was plotted against the incubation time, and the slope (−k) was calculated by linear regression. Then, Clint (uL/min/mg) and half-life (T½, min) of the compounds were calculated following the equation of the inherent clearance rate (Clint)=(k* volume of incubation solution)/mass of liver microsomes.

GST-RORγ LBD (263-509) = molecular target: T2, GST-RORγ LBD (263-509) (Homo sapiens, UniProt P51449); assay: TR-FRET assay of agonistic activity on RORγ receptor; assay type: biochemical
T2 construct: GST-RORγ LBD ((263-509) (produced at ChemPartner))
T2 sequence (P51449 263-509): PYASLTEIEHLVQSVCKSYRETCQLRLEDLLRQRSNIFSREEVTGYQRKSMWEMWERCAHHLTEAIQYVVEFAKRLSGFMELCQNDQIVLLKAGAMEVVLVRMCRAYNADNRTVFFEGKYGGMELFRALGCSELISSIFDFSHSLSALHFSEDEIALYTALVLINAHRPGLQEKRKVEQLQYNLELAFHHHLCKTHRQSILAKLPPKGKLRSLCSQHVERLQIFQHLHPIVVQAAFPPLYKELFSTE
Experimental: A time-resolved fluorescence resonance energy transfer (TR-FRET) assay was used for the compounds of the present disclosure, to determine the agonistic activity of the compounds on the RORγ protein receptor. The agonistic activity is expressed by the concentration for 50% of maximal effect (EC50). The experiment was performed basically with reference to the methods described in ONCOIMMUNOLOGY, 2016, VOL. 5, NO. 12, e1254854.
1. Preparation of RORγ Basal Buffer
A 100 mL basal buffer was prepared, mixed homogeneously and stored for use;
The compounds of the examples shown in the table below were prepared into solutions with DMSO as the solvent, serially diluted at 3-fold dilution to 10 concentrations starting from 10 mM, and added to the corresponding wells of a 384-well plate with each concentration of each compound in duplicate;
a. A 75 nM solution of GST-RORγ LBD ((263-509) (produced at ChemPartner)) and a 4 nM solution of Biotin-SRC1 (Glsbiochem) were prepared with the above basal buffer. The two solutions were 1:1 mixed evenly, and 10 μL of the mixed solution was added into each well of the above 384-well plate. The plate was immediately centrifugated at 1000 rpm for 10 seconds; b. A 1 nM solution of Anti-GST Eu (Cisbio, #61GSTKLA) and a 50 nM solution of SA-APC (Cisbio, […]) were prepared with the above basal buffer. The two solutions were 1:1 mixed evenly, and 10 μL of the mixed solution was added into each well of the above 384-well plate. The plate was immediately centrifugated at 1000 rpm for 10 seconds; c. The resulting 384-well plate was incubated at room temperature for 15 minutes. Data were read on an Envision microplate reader, EC50 values and E max % were calculated.
a. Readings were taken at 665 nm and 615 nm wavelengths respectively on the Envision Microplate Reader, and the ratios between them were normalized. b. Calculation was carried out with the following equation: […]
wherein X is the reading of compounds, Min is the reading of the blank solution, and Max is the reading of 10 μM SRC. c. The concentration-response curve data were fitted by a four-parameter logistic nonlinear regression model, and Emax was the TOP value of the fitted curve.

[3] = Metabolic stability in mouse liver microsomes; assay type: in vitro ADME, CD-1 mice; conditions: for half-life: CD-1; for microsomal CLint: CD-1, 0.5 mg protein/mL
Text: as §1, §2, §3, §4

human PBMC (Th17 cells) = assay: Th17 differentiation and IL-17 secretion in human PBMC; assay type: cell-based; conditions: IL-17 ELISA after 48 hours; for Emax: maximum activation rate
Experimental: Test procedure: PBMC cells were first thawed and plated, and then stimulated with stimulating factors (anti-hCD28: 5 μg/mL; rhTGF-β1: 5 ng/mL; rhIL-6: 20 ng/mL; rhIL-23: 10 ng/Ml) to differentiate to Th17, while adding different concentrations of compounds. All test compounds were serially diluted at 3-fold dilution with DMSO, with 8 serial dilutions starting from the maximum concentration 3 μM. The supermatants were collected after 48 hours for IL-17 ELISA detection, and compared with the solvent group, to determine the activation rate of the compounds on Th17 cells to secrete IL-17. EC50 values were fitted with Graphad8.0, and the TOP values fitted by the software was Emax %.

[4] = Pharmacokinetic (PK) assay in mice; assay type: in vivo; conditions: CD-1 mice; for AUC(0-t) / Cmax / half-life / Vd / bioavailability: mouse, plasma; for Vd: values marked *, read-out: Vss; for bioavailability: Po 5 mg/kg vs IV 1 mg/kg
Experimental: The PK of each compound was determined as follows: 6 CD-1 mice (obtained from Shanghai Lingchang Biotechnology Co., Ltd.) were divided into two groups, 3 mice in each group. One group was administered intravenously at a dose of 1 mg/kg, and the vehicle was 5% DMSO/40% PEG400/55% (20% 3-CD); one group was administered by oral gavage at a dose of 5 mg/kg, and the vehicle was DMSO/1% methylcellulose (1:99). Blood samples were collected from saphenous vein of lower leg in each group at 0, 0.083, 0.25, 0.5, 1, 2, 4, 6, 8 and 24 h after administration. Approximately 40 μL of the blood samples were collected into anticoagulant tubes containing EDTA-K2. Immediately after collection, the tubes were inverted at least 5 times to ensure uniform mixing, and then placed on ice. The blood samples collected at each time point were centrifuged at 4° C., 8000 rpm for 5 minutes to obtain plasma. Another 1.5 mL centrifuge tube was marked with the compound name, animal number, and time point, and the plasma was transferred to this tube. The plasma was stored at −80° C. until analysis.
Compound concentrations in plasma were determined by UPLC-MS/MS method, and the pharmacokinetic parameters were calculated by Phoenix WinNolin 6.4 pharmacokinetic software on the obtained data.

[5] = HEK293T, GAL4 luciferase reporter, read-out: EC50

Row | SMILES | EC50 [1, 5] | half-life [2] | microsomal CLint [2] | % Remaining (T = 60 min) [2] | % Remaining (T = 60 min) [3] | half-life [3] | Emax [1] | EC50 (human PBMC (Th17 cells)) | Emax (human PBMC (Th17 cells)) | AUC(0-t) ([4]; IV 1 mg/kg) | Cmax ([4]; IV 1 mg/kg) | half-life ([4]; IV 1 mg/kg) | Vd ([4]; IV 1 mg/kg) | bioavailability [4] | AUC(0-t) ([4]; Po 5 mg/kg) | Cmax ([4]; Po 5 mg/kg) | half-life ([4]; Po 5 mg/kg) | microsomal CLint [3] | further results
1 | CCS(=O)(=O)c1ccc(-c2c(Cl)cc(NCC(C(=O)O)c3ccc(S(=O)(=O)CC)cc3)cc2Cl)cc1 (centres unmarked) [Example 12-1, 3-(2,6-Dichloro-4′-(ethylsulfonyl)-[1,1′-biphenyl]-4-amino)-2-(4-(ethylsulfonyl)phenyl)propionic acid] | > 3 µM | > 2.42 h | < 9.6 µL/min/mg | 107.4% | 71% | 2.11 h |  |  |  |  |  |  |  |  |  |  |  |  | EC50 (GST-RORγ LBD (263-509); TR-FRET, GST-RORγ LBD with Biotin-SRC1): 0.0068 µM; Emax (GST-RORγ LBD (263-509); maximum activation rate, TOP of fitted curve): 186%
2 | CCS(=O)(=O)c1ccc(C(COC)C(=O)Nc2cc(Cl)c(-c3ccc(S(C)(=O)=O)cc3)c(Cl)c2)cc1 (centres unmarked) [Example 15, N-(2,6-Dichloro-4′-(methylsulfonyl)-[1,1′-biphenyl]-4-yl)-2-(4-(ethylsulfonyl)phenyl)-3-methoxypropionamide] | 0.202 µM | 1.3 h | 17.8 µL/min/mg | 58.7% | 82.60% | > 2.42 h | 79.5% | 0.0451 µM | 197% | 2300 ng·h/mL | 1440 ng/mL | 1.23 h | 0.71 L/kg | 40% | 4240 ng·h/mL | 1060 ng/mL | 2.32 h | < 9.6 µL/min/mg | 
3 | CS(=O)(=O)c1ccc(-c2c(Cl)cc(NC(=O)Cc3ccc(S(=O)(=O)CC4CC4)cc3)cc2Cl)cc1 [Example 17, 2-(4-((Cyclopropylmethyl)sulfonyl)phenyl)-N-(2,6-dichloro-4′-(methylsulfonyl)-[1,1′-biphenyl]-4-yl)acetamide] |  | 0.055 h | 415 µL/min/mg | 0% | 15.30% | 0.377 h | 33.9% | 0.113 µM | 295% |  |  |  |  |  |  |  |  | 61.2 µL/min/mg | EC50 [1]: 0.025 µM
4 | COCC(C(=O)Nc1cc(Cl)c(-c2ccc(S(C)(=O)=O)cc2)c(Cl)c1)c1ccc(S(=O)(=O)CC2CC2)cc1 (centres unmarked) [Example 18, 2-(4-((Cyclopropylmethyl)sulfonyl)phenyl)-N-(2,6-dichloro-4′-(methylsulfonyl)-[1,1′-biphenyl]-4-yl)-3-methoxypropionamide] | 0.784 µM | 0.192 h | 121 µL/min/mg | 2% | 15.10% | 0.402 h | 137% | 0.0294 µM | 193% |  |  |  |  |  |  |  |  | 57.6 µL/min/mg | 
5 | CCS(=O)(=O)c1ccc(-c2c(Cl)cc(NC(=O)C(COC)c3ccc(S(C)(=O)=O)cc3)cc2Cl)cc1 (centres unmarked) [Example 19, N-(2,6-Dichloro-4′-(ethylsulfonyl)-[1,1′-biphenyl]-4-yl)-3-methoxy-2-(4-(methylsulfonyl)phenyl)propionamide] | 0.123 µM | 1.78 h | 13 µL/min/mg | 60% | 23.10% | 0.487 h | 91.4% | 0.0321 µM | 232% | 647 ng·h/mL | 932 ng/mL | 0.63 h | 1.09 L/kg | 29.7% | 924 ng·h/mL | 419 ng/mL | 1.51 h | 47.4 µL/min/mg | CL_obs ([4]; IV 1 mg/kg, values marked **): 26.0** mL/min/kg

— patent US20220402867A1, “SULFO-SUBSTITUTED BIARYL COMPOUND OR SALT THEREOF, PREPARATION METHOD THEREFOR, AND USE THEREOF” (Shanghai Litedd Co., Ltd., priority 2019, published 2022)
